Results: US9347942B2, “Ultrasensitive cell based sensors and uses thereof” (CANVAX BIOTECH SL, priority 2010, dated 2016)

Assays:
Assay type in all cases: cell-based
CHRM2 [1] = target: T1, CHRM2 (Homo sapiens, UniProt P08172); assay: Agonist-induced exocytosis of granzyme B, sandwich ELISA (Example 9); details: agonist 10 uM, 60 minutes
T1 construct: the entire human GPCR; mouse immunoglobulin kappa signal peptide (N); expressed in transfected cells
T1 sequence (P08172 2-466): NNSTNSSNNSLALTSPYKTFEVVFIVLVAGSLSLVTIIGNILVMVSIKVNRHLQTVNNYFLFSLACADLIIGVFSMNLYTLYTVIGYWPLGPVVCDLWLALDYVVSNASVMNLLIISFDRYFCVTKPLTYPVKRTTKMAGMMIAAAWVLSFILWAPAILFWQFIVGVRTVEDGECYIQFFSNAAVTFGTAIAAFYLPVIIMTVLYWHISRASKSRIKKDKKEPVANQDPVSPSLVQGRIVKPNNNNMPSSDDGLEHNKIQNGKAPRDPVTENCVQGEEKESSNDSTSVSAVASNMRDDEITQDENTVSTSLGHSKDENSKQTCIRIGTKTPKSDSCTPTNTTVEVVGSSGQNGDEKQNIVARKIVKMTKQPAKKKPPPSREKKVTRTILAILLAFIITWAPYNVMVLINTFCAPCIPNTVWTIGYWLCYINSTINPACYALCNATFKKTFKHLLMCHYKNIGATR
From the text: Human granzyme B was selected as reporter, chimeric promoter of hCMV-MoLV5′LTR as promoter for reporter expression, RBL-2H3 as hemopoyetic cells with professional regulated exocytosis and several GPCRs as exocytosis modulators under the control of Moloney Leukaemia virus 5′-LTR (MoMLV5′LTR, SEQ ID NO:3) as promoter for expression of exocytosis modulators. […] Vectors for expression of granzyme B had the chimeric promoter of hCMV-MoLV5′LTR-GranzymeB-IRES-NGFR with hygromycin resistance for stable transfections. Vectors for GPCR were electroporated first, cells were selected with neomycin at 500 ug/mL for about two weeks and cells were analysed by flow cytometry (Guava Technologies, USA) with anti-cmyc tag antibody (anti-cmyc-FITC, clone 9E10, Sigma-Aldrich, USA) for surface expression. Positive cells were separated by magnetic separation using anti-cmyc monoclonal antibody conjugated to biotin (Miltenyi Biotec, Germany) and streptavidin-MACS (Miltenyi Biotec, Germany). After growing positive fraction of cells was again analysed by flow cytometry with the anti-cmyc tag antibody. Positive cells were individually electroporated with the vector for expression human granzyme B using a microporator (Digital Bio Technology, South Korea) and after 48 hours hygromycin at 1500 ug/mL and neomycin at 500 ug/mL were added to culture for selection. After selection for about 2 weeks cells were analysed by flow cytometry (Guava Technologies, USA) with an antibody against NGFR coupled to FITC. Positive population where magnetically separated by MACS using anti-NGFR-MACS sup.R (Miltenyi Biotec, Germany). Sorted populations were again analysed again by flow cytometry to check both the expression of the GPCR with the anti-cmyc tag antibody and with anti-NGFR antibody to check granzyme B expression. […] GPCRs included were: SSTR2 and CHRM2 as alpha-i coupled GPCRs; AGTR1 and bradykinin type B1 receptor (BDKRB1) as alpha-q coupled GPCRs and AVPR2 as alpha-s coupled GPCR. […] Cells were seeded the night before experiment at 100.000 cells per well of a 96-well microplate in 100 uL of complete cell culture medium. Next day cells were washed with HBSS buffer and incubated with the ligand (agonist) at 10 uM of each GPCR in 30 uL of HBSS buffer at 37 Celsius degrees for 60 minutes and after centrifugation at 400 g for 5 minutes supernatants were analysed for human granzyme B protein by a sandwich ELISA specific for human granzyme B (Ucytech, Netherlands).

CHRM2 [2] = target: T1, CHRM2; assay: Number of steps needed, 384 well mix and read assay (Example 13); details: carbachol 10 uM, 5.000 cells, only 15 uL of medium aspirated, 30 minutes
From the text: This experiment was designed to test how many steps are needed for an assay with the cell based sensor, in particular if a washing step is needed before assay. As the RBL-2H3 is an adherent cell line at least one step of aspiration of cell culture medium is needed. If all cell culture medium is aspirated then cells should become dry and eventually die in particular if there is a time interval between aspiration and addition of compounds to test for exocytosis. For this reason an additional treatment was included were not all cell culture medium is aspirated. But if not all the cell culture medium is aspirated then some of the reporter secreted by cells after overnight culture contributes to basal exocytosis. CHRM2 and granzyme B expressing cells from example #12 were used in this experiment but cells were seeded 16 hours before experiment at 5.000 cells per well of a 384 well plate with black walls in 20 uL of culture medium. Before experiment three treatments were made: (1) discarding all the 20 uL of medium without washing; (2) discarding only 15 uL of cell culture medium and (3) discarding only 15 uL of cell culture medium and washing of the cells using 75 uL of Hanks Balanced Salt Solution (HBSS) containing 0.1% BSA and aspiration of 75 uL of washing buffer. […] Plates were incubated at 37° C. in the fluorescence reader and read at 0, 15, 30, 45 and 60 minutes. […]

CHRM2 [3] = target: T1, CHRM2; assay: Multiplex assay, Sensor B channel (CHRM2 and granzyme B) (Example 14); details: granzyme B substrate 1 uM
From the text: The principle of multiplex reactions is illustrated in FIG. 5. RBL2H3 cells were stably transfected with a pair of a GPCR as exocytosis modulator and a granzyme as a granule stored reporter as described in example 9. Combinations included were: hIL8 receptor (hIL8RA) and human granzyme A (Sensor A) and CHRM2 and granzyme B expressing cells of example #12 (Sensor B). Human IL8 was used as agonist of hll_8R while carbachol was used as CHRM2 agonist. […] As both substrates uses the same pair of fluorophore (FAM) and quencher (TAMRA) only one substrate could be added to reaction vessel for specific detection at 535 nm after excitation at 485 nm. […] Sensors, agonists and substrates were mixed in a total volume of 20 uL of HBSS in a black walled 384 well microplate and the microplate was incubated at 37 Celsius degrees in a BMG-Labtech microplate fluorimeter and read at 0, 15, 30, 45 and 60 minutes.

SMILES: C[N+](C)(C)CCOC(N)=O [Carbachol, carbachol]
- Absorbance at maximal dilution of ELISA tested (CHRM2 [1]; 100.000 cells, dilution 2250, after subtraction of 0.2 blank): 0.6
- Sensitivity (minimal amount of cells needed) (CHRM2 [1]; granzyme B ELISA): <150 cells
- signal to background (CHRM2 [2]): 8-10
- Signal to background at 30 min (CHRM2 [3]; Condition 7: 5000 cells Sensor B, carbachol 10 uM): 20
- Signal to background at 30 min (CHRM2 [3]; Condition 10: Sensor A 12500 + Sensor B 5000 cells, IL8 10 uM + carbachol 10 uM): 20
